Test [1] deals with primed human PSCs or ICLCs. Nature of the test: Conversion of primed human PSCs or ICLCs to 8CLCs (8C marker expression). In kind it is cell-based. The note with it: CHIR99021 included in e4CL, or IWR1 withdrawn from e4CL. Here is the method:
Primed human PSCs were cultured following the same procedures of example 1. One day before initiation of the conversion, primed human PSCs were dissociated into single cells and plated at 2,000 to 3,000 cells/cm^2 on feeder using mTeSR1 or E8 medium supplemented with 10 μM Y27632. Twenty-four hours later, culture medium was changed into e4CL medium, cells were cultured in incubator at 37° C., 5% CO2, hypoxic or normoxic condition. Medium was refreshed daily. Cells were passaged every 3 to 4 days. For passaging, cells were dissociated into single cells using TrypLE: 0.5 mM EDTA (1:1), plated at 2,000 to 3,000 cells/cm^2 on feeder coated plates. Generally, cells were converted to 8CLCs in approximately one week. One day before initiation of the conversion, ICLCs were dissociated into single cells and plated at 2,000 to 3,000 cells/cm^2 on feeders using 4CL medium. Twenty-four hours later, culture medium is changed into e4CL medium. Medium was refreshed daily. Cells were converted to 8CLCs in 3 to 5 days without passaging. ICLCs were cultured following the same procedures of example 1. One day before initiation of the conversion, ICLCs were dissociated into single cells and resuspended in 4CL medium at a density of 300,000 cells/ml. The cell suspension was added into flasks for suspension culture (Greiner Bio-One, 658190). […]

The test system of the next test is primed human PSCs. Nature of the test: Conversion of primed human PSCs to ICLCs (ICM marker expression, colony morphology). In kind it is cell-based. Here is the method: One day before initiation of conversion, primed human PSCs were washed with PBS once and dissociated into single cells and plated at a density of 1,000 to 1,500 cells/cm^2 on feeder in mTeSR1 or E8 medium supplemented with 10 μM Y27632. Twenty-four hours later, culture medium was switched to 4CL medium 1. The culture medium was refreshed with the same medium every 24 hours. Colonies became round and domed-shape in 24 to 48 hours. Cells were passaged every 3 to 4 days. For passaging, cells were dissociated into single cells using TrypLE: 0.5 mM EDTA (1:1) and plated at a density of 1,000 to 1,500 cells/cm^2 on feeder (feeders were seeded on Geltrex™/Matrigel™ pre-treated plate) (FIG. 1). The ICLCs induction and maintenance can be conducted under hypoxic condition (37° C., 5% CO2, 5% O2), or normoxic condition (37° C., 5% CO2, 21% O2) (FIG. 34), preferably hypoxia condition.
Using the same procedures of example 1, except plating cells on 1% (v/v) Geltrex™ in DMEM-F12 (cat #) coated plates instead of on feeder cells.
Primed human PSCs were cultured following the same procedures of example 1. One day before initiation of the conversion, primed human PSCs were dissociated into single cells and plated 60,000 cells/well in Aggrewell™800 plates using mTeSR1 or E8 medium supplemented with 10 μM Y27632. […]

Structures are written as SMILES.

`Cc1c[nH]c(-c2cnc(NCCNc3ccc(C#N)cn3)nc2-c2ccc(Cl)cc2Cl)n1` [CHIR99021]: the 8CLC formation entry in test [1] was “inhibits formation of 8CLC”. Further, the ICLC formation entry in the test with primed human PSCs (CHIR99021 included in 4CL, or IWR1 withdrawn from 4CL) is “inhibits formation of ICLC”.

As to `O=C1O[C@H]([C@@H](O)CO)C(O)=C1O` [L-ascorbic acid], the “expression levels of ICM specific genes such as DNMT3L, STELLA, DPPA5, KLF17” value in the test with primed human PSCs (final concentration of 40 to 70 μg/ml) is “potently increases”.

The values above are taken from patent publication US20230407249A1, “Media and methods for establishing and maintaining early embryo-like cells” (BGI SHENZHEN GROUP HOLDINGS CO., LIMITED, priority 2020, published 2023).
